Data as given in patent publication US20230047825A1, “ANTIMICROBIAL PEPTIDES” (priority 2019, published 2023).
Converted amounts (≈) assume the structure as drawn. Read-outs that look alike come from different tables or passages of the source. Marks after values point to notes of the source that are not given here. Where a SMILES comes first, the peptide text is derived from it.

What was measured:
[1] = test system: Pseudomonas aeruginosa NCTC 13437; assay: Antibacterial activity assay (broth microdilution MIC); type: cell-based; settings: PA13437, in µg/mL; for MIC on initial panels: medium and unit not given; for MIC: untitled table, medium/unit not given, values match RPMI of Table 2
[2] = test system: Acinetobacter baumannii AYE; type: cell-based; settings: for MIC, Stability in serum (MH) / MIC on initial panels / MIC: AYE; for MIC on initial panels: medium and unit not given; for MIC on initial panels / MIC: in µg/mL; for MIC: untitled table, medium/unit not given, values match RPMI of Table 2
HeLa = assay: Cytotoxicity assay (XTT); type: cell-based, human; parameters: Toxicity HeLa: unit not given beside the values; settings: for Toxicity HeLa: unit not given; for Toxicity HeLa (EC50), Peptide concentration: value printed in parentheses
Procedure, shortened: (§1)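 Cells seeded 24 h in EMEM with 10% FBS and NEAA at 37 °C, 10% CO2, then medium replaced with peptide dilutions. After a further 24 h exposure, viability read by XTT tetrazolium staining.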

HEK293 = assay: Cytotoxicity assay (XTT); type: cell-based, human; settings: for Toxicity HEK293: unit not given; for Toxicity HEK293 (EC50), Peptide concentration: value printed in parentheses
Procedure, shortened: as §1

[3] = test system: Pseudomonas aeruginosa PA01; assay: Antibacterial activity assay (broth microdilution MIC); type: cell-based; settings: for MIC, Stability in serum (MH) / MIC on initial panels: in µg/mL; for MIC on initial panels: medium and unit not given; for MIC: untitled table, medium/unit inferred, values match RPMI of Table 2
VRE12201 = assay: as above; type: cell-based, Enterococcus faecalis; settings: medium and unit inferred
Excerpt: Antibacterial activity assay.
The bacterial strains used are as in the above examples. A table of strains is provided below to aid understanding.

[4] = test system: Acinetobacter baumannii ATCC 17978; type: cell-based; settings: in µg/mL; for MIC on initial panels / MIC: AB17978; for MIC on initial panels: medium and unit not given; for MIC: untitled table, medium/unit not given, values match RPMI of Table 2; for MIC, Stability in serum (MH): Ab17978
Klebsiella pneumoniae M6 = type: cell-based; settings: for MIC on initial panels: medium and unit not given, in µg/mL; for MIC: untitled table, medium/unit not given, values match RPMI of Table 2, in µg/mL
[5] = test system: MS Staphylococcus aureus ATCC 9144; type: cell-based; settings: MSSA9144; for MIC on initial panels: medium and unit inferred; for MIC: untitled table, medium/unit not given, values match RPMI of Table 2, in µg/mL
[6] = test system: EMR Staphylococcus aureus-15 (EMRSA-15); type: cell-based; settings: for MIC on initial panels / MIC: EMRSA15; for MIC on initial panels: medium and unit inferred; for MIC: untitled table, medium/unit inferred, values match RPMI of Table 2
[7] = test system: Escherichia coli NCTC 12923; type: cell-based; settings: for MIC, Stability in serum (MH) / MIC on initial panels / MIC: EC12923; for MIC on initial panels: medium and unit not given; for MIC on initial panels / MIC: in µg/mL; for MIC: untitled table, medium/unit not given, values match RPMI of Table 2
[8] = test system: EMR Staphylococcus aureus-16 (EMRSA-16); type: cell-based; settings: EMRSA16; for MIC on initial panels: medium and unit not given, in µg/mL; for MIC: untitled table, medium/unit inferred, values match RPMI of Table 2
[9] = test system: Klebsiella pneumoniae NCTC 13368; type: cell-based; settings: KP13368, in µg/mL; for MIC on initial panels: medium and unit not given; for MIC: untitled table, medium/unit not given, values match RPMI of Table 2
[10] = test system: VR Enterococcus faecium NCTC 12204; assay: Antibacterial activity assay (broth microdilution MIC); type: cell-based; settings: VRE12204, in µg/mL; for MIC on initial panels: medium and unit not given; for MIC: untitled table, medium/unit not given, values match RPMI of Table 2
[11] = Electrophysiology (Port-a-Patch patch-clamp) on model membranes
Excerpt: The depth of insertion into each membrane is shown as the Z-position for each residue, averaged over all four peptides, relative to the phosphate group plane in the upper POPE/POPG (A/E/I) or POPG (C/G/K) bilayer leaflet in six MD simulations. Positive or negative values indicate the peptides are below or above the phosphate group. Representative current traces illustrating membrane activity when DPhPE/DPhPG (B/F/J) or DPhPG (D/H/L) model membranes are challenged with each peptide at the indicated concentration (lowest concentration that induced detectable activity). Data is for pleurocidin (A-D), pleurocidin-KR (E-H) and pleurocidin-VA (I-L). Membrane disordering by each peptide in mixed POPE/POPG bilayers is shown with data obtained from ^2H solid-state NMR (M/N) or from MD simulations where order parameters are calculated for all lipids within 4 Å of a peptide (O/P).
Molecular dynamics simulations. Simulations were carried out on either the ARCHER Cray XC30 supercomputer, or Dell Precision quad core T3400 or T3500 workstations equipped with a 1 kW Power supply (PSU) and two NVIDA PNY GeForce GTX570 or GTX580 graphics cards using Gromacs.^53 The CHARMM36 all-atom force field was used in all simulations^54-56. All simulations were run, as described previously^20 and for a total of 200 nanoseconds and repeated twice, with peptides inserted at different positions and orientations, giving a total of approximately 4.0 μs simulation. Liposome preparation and circular dichroism (CD) spectroscopy. Small unilamellar vesicles (SUV) were produced and far-UV spectra of the peptides obtained as described previously^20 using a Chirascan Plus spectrometer (Applied Photophysics, Leatherhead, UK) with samples maintained at 310 K. For liposome experiments the lipid concentration was 5 mM and a peptide to lipid molar ratio of 1:100 was maintained while the SDS micelles concentration was 20 mM with 200 μM peptide. Electrophysiology experiments (Patch-clamp). Patch clamp experiments were performed using the Port-a-Patch® (Nanion Technologies GmbH, Munich, Germany) with giant unilamellar vesicles (GUVs) composed of DPhPE/DPhPG (60:40, mol:mol) or DPhPG prepared by the electroformation method using the Nanion Vesicle Prep Pro setup (Nanion Technologies GmbH, Munich, Germany) as described previously.^20
Synergy experiments were performed following a checkerboard protocol.

## CC(C)C[C@@H](NC(=O)[C@@H](Cc1ccc(O)cc1)NC(=O)[C@@H](Cc1c[nH]cn1)NC(=O)[C@H](NC(=O)[C@@H](CC(C)C)NC(=O)[C@@H](C)NC(=O)[C@@H](C)NC(=O)[C@@H](CCCNC(=N)N)NC(=O)CNC(=O)[C@H](NC(=O)[C@@H](Cc1c[nH]cn1)NC(=O)[C@@H](CCCNC(=N)N)NC(=O)CNC(=O)[C@H](NC(=O)[C@@H](Cc1c[nH]cn1)NC(=O)[C@@H](C)NC(=O)[C@@H](C)NC(=O)[C@@H](CCCNC(=N)N)NC(=O)[C@@H](CCCNC(=N)N)NC(=O)[C@@H](Cc1ccccc1)NC(=O)[C@@H](Cc1ccccc1)NC(=O)[C@@H](CO)NC(=O)CNC(=O)[C@@H](Cc1c[nH]c2ccccc12)NC(=O)CN)C(C)C)C(C)C)[C@H](C)O)C(N)=O [D-pleurocidin-KR] (HELM PEPTIDE1{G.[dW].G.[dS].[dF].[dF].[dR].[dR].[dA].[dA].[dH].[dV].G.[dR].[dH].[dV].G.[dR].[dA].[dA].[dL].[dT].[dH].[dY].[dL].[am]}$$$$V2.0; N-terminus assumed)
[1]; No serum
  MIC, Stability in serum (MH): 4
[1]; Serum (10% fetal bovine serum)
  MIC, Stability in serum (MH): 8
[1]
  MIC on initial panels: 4
  MIC: 16
[2]; No serum
  MIC, Stability in serum (MH): 2 µg/mL (≈ 0.709 µM)
[2]; Serum (10% fetal bovine serum)
  MIC, Stability in serum (MH): 0.5 µg/mL (≈ 0.177 µM)
[2]
  MIC on initial panels: 2
  MIC: 2
HeLa
  Toxicity HeLa: 25.3 ± 2.2
  Toxicity HeLa (EC50), Peptide concentration: (25.3 ± 2.2) μg/ml
HEK293
  Toxicity HEK293: 36.4 ± 4.3
  Toxicity HEK293 (EC50), Peptide concentration: (36.4 ± 4.3) μg/ml
[3]; No serum
  MIC, Stability in serum (MH): 4
[3]; Serum (10% fetal bovine serum)
  MIC, Stability in serum (MH): 4
[3]
  MIC on initial panels: 4
  MIC: 16 µg/mL (≈ 5.67 µM)
VRE12201
  MIC on initial panels: 8 µg/mL (≈ 2.83 µM)
[4]
  MIC on initial panels: 2
  MIC: 4
[4]; No serum
  MIC, Stability in serum (MH): 2
[4]; Serum (10% fetal bovine serum)
  MIC, Stability in serum (MH): 0.5
Klebsiella pneumoniae M6; No serum
  MIC, Stability in serum (MH): 2 µg/mL (≈ 0.709 µM)
Klebsiella pneumoniae M6; Serum (10% fetal bovine serum)
  MIC, Stability in serum (MH): 0.5 µg/mL (≈ 0.177 µM)
Klebsiella pneumoniae M6
  MIC on initial panels: 2
  MIC: 4
[5]
  MIC on initial panels: 2 µg/mL (≈ 0.709 µM)
  MIC: 0.25-0.5
[6]
  MIC on initial panels: 2 µg/mL (≈ 0.709 µM)
  MIC: 0.5 µg/mL (≈ 0.177 µM)
[6]; Mueller-Hinton broth
  MIC, Peptide concentration: 2 µg/mL (≈ 0.709 µM)
[6]; Mueller-Hinton broth, listed as D-PLEUROCIDIN-KR
  MIC, Peptide concentration: 4 µg/mL (≈ 1.42 µM)
[7]; No serum
  MIC, Stability in serum (MH): 1 µg/mL (≈ 0.354 µM)
[7]; Serum (10% fetal bovine serum)
  MIC, Stability in serum (MH): 0.25 µg/mL (≈ 0.0886 µM)
[7]
  MIC on initial panels: 1
  MIC: 2
[8]
  MIC on initial panels: 4
  MIC: 1 µg/mL (≈ 0.354 µM)
[9]; No serum
  MIC, Stability in serum (MH): 2
[9]; Serum (10% fetal bovine serum)
  MIC, Stability in serum (MH): 1
[9]
  MIC on initial panels: 2
  MIC: 4
[10]
  MIC on initial panels: 2
  MIC: 2

## CC(C)C[C@H](NC(=O)[C@H](Cc1ccc(O)cc1)NC(=O)[C@H](Cc1c[nH]cn1)NC(=O)[C@@H](NC(=O)[C@H](CC(C)C)NC(=O)[C@H](C)NC(=O)[C@H](C)NC(=O)[C@H](CCCNC(=N)N)NC(=O)CNC(=O)[C@@H](NC(=O)[C@H](Cc1c[nH]cn1)NC(=O)[C@H](CCCNC(=N)N)NC(=O)CNC(=O)[C@@H](NC(=O)[C@H](Cc1c[nH]cn1)NC(=O)[C@H](C)NC(=O)[C@H](C)NC(=O)[C@H](CCCNC(=N)N)NC(=O)[C@H](CCCNC(=N)N)NC(=O)[C@H](Cc1ccccc1)NC(=O)[C@H](Cc1ccccc1)NC(=O)[C@H](CO)NC(=O)CNC(=O)[C@H](Cc1c[nH]c2ccccc12)NC(=O)CN)C(C)C)C(C)C)[C@@H](C)O)C(N)=O [Pleurocidin-KR] (H-GWGSFFRRAAHVGRHVGRAALTHYL-NH2; N-terminus assumed)
[1]; No serum
  MIC, Stability in serum (MH): 4
[1]; Serum (10% fetal bovine serum)
  MIC, Stability in serum (MH): 32*
[1]
  MIC on initial panels: 8
  MIC: >32
[2]; No serum
  MIC, Stability in serum (MH): 2 µg/mL (≈ 0.709 µM)
[2]; Serum (10% fetal bovine serum)
  MIC, Stability in serum (MH): 2 µg/mL (≈ 0.709 µM)
[2]
  MIC on initial panels: 1-2
  MIC: 8-16
[2]; RPMI (value in parentheses)
  MIC, Peptide concentration: 8 to 16 µg/mL
HeLa
  Toxicity HeLa: 30.7 ± 2.6
  Toxicity HeLa (EC50), Peptide concentration: (30.7 ± 2.6) μg/ml
HEK293
  Toxicity HEK293: 40.1 ± 4.1
  Toxicity HEK293 (EC50), Peptide concentration: (40.1 ± 4.1) μg/ml
[3]; No serum
  MIC, Stability in serum (MH): 4
[3]; Serum (10% fetal bovine serum)
  MIC, Stability in serum (MH): >128
[3]
  MIC on initial panels: 4
  MIC: > 32 µg/mL
VRE12201
  MIC on initial panels: 32 µg/mL (≈ 11.3 µM)
[11]; DPhPE/DPhPG
  Peptide concentration necessary to start membrane activity: 10 µM
[11]; DPhPG
  Peptide concentration necessary to start membrane activity: 7.5 µM
[4]
  MIC on initial panels: 1
  MIC: 8
[4]; No serum
  MIC, Stability in serum (MH): 2
[4]; Serum (10% fetal bovine serum)
  MIC, Stability in serum (MH): 2
Klebsiella pneumoniae M6
  MIC, Peptide concentration: 2 µg/mL (≈ 0.709 µM)
  MIC on initial panels: 2
  MIC: 32
Klebsiella pneumoniae M6; No serum
  MIC, Stability in serum (MH): 4 µg/mL (≈ 1.42 µM)
Klebsiella pneumoniae M6; Serum (10% fetal bovine serum)
  MIC, Stability in serum (MH): 2 µg/mL (≈ 0.709 µM)
[5]
  MIC on initial panels: 2 µg/mL (≈ 0.709 µM)
  MIC: 4
[6]; EMR -15 (EMRSA-15)
  MIC, Peptide concentration: 4 (4) μg/ml
[6]
  MIC on initial panels: 4 µg/mL (≈ 1.42 µM)
  MIC: 4 µg/mL (≈ 1.42 µM)
[7]; No serum
  MIC, Stability in serum (MH): 2 µg/mL (≈ 0.709 µM)
[7]; Serum (10% fetal bovine serum)
  MIC, Stability in serum (MH): 1 µg/mL (≈ 0.354 µM)
[7]
  MIC on initial panels: 1
  MIC: 16
[7]; NCTC 12923
  MIC, Peptide concentration: 16 µg/mL (≈ 5.67 µM)
[8]
  MIC on initial panels: 4
  MIC: 8 µg/mL (≈ 2.83 µM)
[9]; No serum
  MIC, Stability in serum (MH): 2
[9]; Serum (10% fetal bovine serum)
  MIC, Stability in serum (MH): 4
[9]
  MIC on initial panels: 2-4
  MIC: 32
[10]
  MIC on initial panels: 4
  MIC: 16
